# System: Tacaribe virus
# Assay: Antiviral activity against Tacaribe virus TRVL11573
# Type: functional, organism-based
# Details: Mammarenavirus tacaribeense
smiles,measurement,value
COc1ccc(NC(=O)CC2SC(N3N=C(c4ccccc4)CC3c3ccc(OC)cc3)=NC2=O)cc1 (stereo unspecified),EC50,0.71 µg/mL

# — ChEMBL document CHEMBL3108688, “4-Thiazolidinones: the advances continue…” (Eur J Med Chem, 2014)
